Measured values from US20250268884A1, “Deuterated Domperidone for Treating Gastroparesis” (CinDome Pharma, Inc., priority 2022, published 2025).

Columns and labels:
[1] = system: adults with idiopathic or diabetic gastroparesis; experiment: ANMS GCSI-DD total and subscale scores, protocol-specified scoring method, Phase 2a; type: in vivo, human; set-up: key to ANMS GCSI-DD total score, Day 14/EOT, mean / ANMS GCSI-DD nausea/vomiting subscale score, Day 14/EOT, mean / ANMS GCSI-DD postprandial fullness/early satiety subscale score, Day 14/EOT, mean / ANMS GCSI-DD bloating subscale score, Day 14/EOT, mean: symptoms rated 0 (none) to 4 (very severe)
Experimental: Subjects were Evaluated as Follows: • Days −28 to −11: Screening procedures were performed. The ANMS GCSI-DD questionnaire was completed daily for at least 14 days prior to randomization (Day 1); • Days −10 to −3: The ANMS GCSI-DD questionnaire was completed daily. A GEBT was performed on a single day within this window, with breath samples obtained twice prior to consumption of a standardized, carbon-13 (^13C)-enriched meal and then at 45, 90, 120, 150, 180, and 240 minutes after meal consumption after an 8-hour fast. […] On Day 14 (±2 days), the PAGI-SYM and Clinical Grading Assessment questionnaires were completed prior to the final dose of study drug. • A GEBT was administered 30 minutes after study drug administration on Day 14 (±2 days). Breath samples were obtained twice prior to ^13C-enriched meal consumption and then at 45, 90, 120, 150, 180, and 240 minutes after meal consumption after an 8-hour fast. If a subject withdrew from the study prior to the Day 14 (±2 days) GEBT, attempts should have been made to perform a GEBT on the last day of study drug administration. Clinical Grading Assessment Scales were also performed.
The ANMS GCSI-DD covers 5 core relevant symptoms of gastroparesis: nausea, early satiety, postprandial fullness, upper abdominal pain, and vomiting. Bloating is included as an exploratory symptom. Symptoms are rated on a severity numeric response scale from 0 (none) to 4 (very severe). Vomiting is captured on a frequency response scale and scored as follows: 0 for no episodes, 1 for 1 episode, 2 for 2 episodes, 3 for 3 episodes, and 4 for 4 or more episodes. Subjects were asked to recall symptoms over the previous 24 hours and complete the ANMS GCSI-DD patient-reported symptom questionnaire for at least 14 days prior to randomization, on the day of randomization, and daily from Days 1 to 14 (±2 days).

[2] = system: adults with idiopathic or diabetic gastroparesis; experiment: 12-lead ECG QTcF safety assessment, Phase 2a; type: in vivo, human
Experimental: Safety was evaluated through assessments of Aes, vital signs, physical examinations, clinical laboratory evaluations (including prolactin), and ECG findings.

[2H]c1c([2H])c([2H])c2c([nH]c(=O)n2CCCN2CCC(n3c(=O)[nH]c4cc(Cl)ccc43)CC2)c1[2H] [Deudomperidone, 1-{3-[4-(5-chloro-2-oxo-2,3-dihydro-1H-1,3-benzodiazol-1-yl)piperidin-1yl]propyl}-2,3-dihydro(4,5,6,7-D4)-1H-1,3-benzodiazol-2-one]
ANMS GCSI-DD bloating subscale score, Day 14/EOT, mean ([1]; 5 mg BID, Cohort 3, ITT): 2.33 | ANMS GCSI-DD bloating subscale score, change from baseline to Day 14/EOT ([1]; 5 mg BID, Cohort 3, ITT): −0.37 | ANMS GCSI-DD bloating subscale score, percent change from baseline to Day 14/EOT ([1]; 5 mg BID, Cohort 3, ITT): −16.16% | ANMS GCSI-DD nausea/vomiting subscale score, Day 14/EOT, mean ([1]; 5 mg BID, Cohort 3, ITT): 1.00 | ANMS GCSI-DD nausea/vomiting subscale score, change from baseline to Day 14/EOT ([1]; 5 mg BID, Cohort 3, ITT): −0.52 | ANMS GCSI-DD nausea/vomiting subscale score, percent change from baseline to Day 14/EOT ([1]; 5 mg BID, Cohort 3, ITT): −41.08% | ANMS GCSI-DD postprandial fullness/early satiety subscale score, Day 14/EOT, mean ([1]; 5 mg BID, Cohort 3, ITT): 2.00 | ANMS GCSI-DD postprandial fullness/early satiety subscale score, change from baseline to Day 14/EOT ([1]; 5 mg BID, Cohort 3, ITT): −0.78 | ANMS GCSI-DD postprandial fullness/early satiety subscale score, percent change from baseline to Day 14/EOT ([1]; 5 mg BID, Cohort 3, ITT): −29.47% | ANMS GCSI-DD total score, Day 14/EOT, mean ([1]; 5 mg BID, Cohort 3, ITT): 1.78 | ANMS GCSI-DD total score, change from baseline to Day 14/EOT ([1]; 5 mg BID, Cohort 3, ITT): −0.56 | ANMS GCSI-DD total score, percent change from baseline to Day 14/EOT ([1]; 5 mg BID, Cohort 3, ITT): −26.84% | ANMS GCSI-DD bloating subscale score, Day 14/EOT, mean ([1]; 10 mg BID, Cohort 1, ITT): 1.76 | ANMS GCSI-DD bloating subscale score, change from baseline to Day 14/EOT ([1]; 10 mg BID, Cohort 1, ITT): −1.08 | ANMS GCSI-DD bloating subscale score, percent change from baseline to Day 14/EOT ([1]; 10 mg BID, Cohort 1, ITT): −41.78% | ANMS GCSI-DD nausea/vomiting subscale score, Day 14/EOT, mean ([1]; 10 mg BID, Cohort 1, ITT): 0.74 | ANMS GCSI-DD nausea/vomiting subscale score, change from baseline to Day 14/EOT ([1]; 10 mg BID, Cohort 1, ITT): −0.89 | ANMS GCSI-DD nausea/vomiting subscale score, percent change from baseline to Day 14/EOT ([1]; 10 mg BID, Cohort 1, ITT): −52.41% | ANMS GCSI-DD postprandial fullness/early satiety subscale score, Day 14/EOT, mean ([1]; 10 mg BID, Cohort 1, ITT): 1.71 | ANMS GCSI-DD postprandial fullness/early satiety subscale score, change from baseline to Day 14/EOT ([1]; 10 mg BID, Cohort 1, ITT): −1.16 | ANMS GCSI-DD postprandial fullness/early satiety subscale score, percent change from baseline to Day 14/EOT ([1]; 10 mg BID, Cohort 1, ITT): −41.38% | ANMS GCSI-DD total score, Day 14/EOT, mean ([1]; 10 mg BID, Cohort 1, ITT): 1.40 | ANMS GCSI-DD total score, change from baseline to Day 14/EOT ([1]; 10 mg BID, Cohort 1, ITT): −1.04 | ANMS GCSI-DD total score, percent change from baseline to Day 14/EOT ([1]; 10 mg BID, Cohort 1, ITT): −43.64% | ANMS GCSI-DD bloating subscale score, Day 14/EOT, mean ([1]; 20 mg QD, Cohort 2, ITT): 1.47 | ANMS GCSI-DD bloating subscale score, change from baseline to Day 14/EOT ([1]; 20 mg QD, Cohort 2, ITT): −1.40 | ANMS GCSI-DD bloating subscale score, percent change from baseline to Day 14/EOT ([1]; 20 mg QD, Cohort 2, ITT): −51.82% | ANMS GCSI-DD nausea/vomiting subscale score, Day 14/EOT, mean ([1]; 20 mg QD, Cohort 2, ITT): 0.40 | ANMS GCSI-DD nausea/vomiting subscale score, change from baseline to Day 14/EOT ([1]; 20 mg QD, Cohort 2, ITT): −1.20 | ANMS GCSI-DD nausea/vomiting subscale score, percent change from baseline to Day 14/EOT ([1]; 20 mg QD, Cohort 2, ITT): −67.94% | ANMS GCSI-DD postprandial fullness/early satiety subscale score, Day 14/EOT, mean ([1]; 20 mg QD, Cohort 2, ITT): 1.37 | ANMS GCSI-DD postprandial fullness/early satiety subscale score, change from baseline to Day 14/EOT ([1]; 20 mg QD, Cohort 2, ITT): −1.38 | ANMS GCSI-DD postprandial fullness/early satiety subscale score, percent change from baseline to Day 14/EOT ([1]; 20 mg QD, Cohort 2, ITT): −50.14% | ANMS GCSI-DD total score, Day 14/EOT, mean ([1]; 20 mg QD, Cohort 2, ITT): 1.08 | ANMS GCSI-DD total score, change from baseline to Day 14/EOT ([1]; 20 mg QD, Cohort 2, ITT): −1.33 | ANMS GCSI-DD total score, percent change from baseline to Day 14/EOT ([1]; 20 mg QD, Cohort 2, ITT): −55.24% | ANMS GCSI-DD total score and all subscale scores at Day 14/End of Treatment ([1]; all deudomperidone treatment groups, placebo also decreased): decreased from baseline | subjects with ≥6% change from baseline in QTcF ([2]; 10 mg BID, Day 14 at 4 hours post-dose): 1 (3.6%) subjects (%) | subjects with ≥6% change from baseline in QTcF ([2]; 10 mg BID, Day 14 at 6 hours post-dose): 1 (4.3%) subjects (%) | subjects with ≥6% change from baseline in QTcF ([2]; 20 mg QD, Day 14 at 4 hours post-dose): 3 (20.0%) subjects (%) | subjects with ≥6% change from baseline in QTcF ([2]; 20 mg QD, Day 14 at 6 hours post-dose): 2 (16.7%) subjects (%) | QTcF of subject meeting alert criteria (never increased above) ([2]; 1 subject, alert at 4 and 6 hours post-dose on Day 14): ≤ 426 ms | QTcF of second subject meeting alert criteria ([2]; Day 7, baseline QTcF average 430 msec): 474 ms | prolongations of the QTcF interval ([2]; all dose groups): no clinically meaningful prolongations
